# Measured values reported in US20120135866A1, “INCREASING PLANT VIGOR” (DOW AGROSCIENCES LLC, priority 2007, published 2012).
# Entries after “also recorded” stand apart in the source; their conditions may differ.
# Experiments:
# Format in all cases: in vivo
# [1] = system: plant grown from soaked seeds; assay: Test 1: plant weight (aerial portion) after seed soak; details: for Effect on plant weight vs check: Test 1, seed soak
# Experimental: (§1) Seeds were soaked beginning on T=0 days in solutions of either
# (§2) Compound A, imidacloprid, or plain water containing 0.125% (v:v) Tween 20 (check treatment). Compounds were formulated as technical material in water containing 0.125% Tween 20. […] Solution concentrations were 50, 5, 0.5, 0.05 and 0.005 ppm. No evaporation was possible and a significant excess of solution was present to ensure abundant availability of either Compound A or imidacloprid from each solution. On average 20 ml of solution was used to soak groups of seed needed for the seed soaking phase of this test. Seeds were removed from these solutions on T=2 days and planted. Seeds exposed to each unique treatment were germinated as a groups in dedicated shallow plastic cups filled with white sand and containing plain water. Planting of these seeds occurred on T=2 days and the seeds were grown in these shallow cups until T=10 days. Initially 70 ml of water was added to each shallow cup at planting and additional water was added to the cups as needed to keep the sand moist. On T=10 days germinating seedlings were transplanted from the shallow germination cups to individual containers (plastic cups−6 reps per treatment) filled with white sand. Thirty ml of water was used to water the plants following transplanting. After the initial treatment water was added to cups as needed to maintain moisture for plant development. On T=14 days each plant was infested with cotton aphid (CA) Aphis gossypii by transferring a small piece of infested foliage to each test plant. The number of aphids transferred to each plant was uniform based on visual estimation. Plants were rated on T=17 days and T=18 days by counting the number of CA and taking the weight of the each plant. The plant part weighed was the aerial portion of the plant cut off at the surface of the sand. Data were analyzed using analysis of variance with an LSD means separation test (Minitab).
# Treatment number 4 experienced some negative effects associated with excess watering during the phase when these plants were being germinated. […] Only four replicate plants were able to be planted to individual growing cups. […] Prior to conducting an analysis of individual treatment effects (factorial analysis of variance, LSD means separation test P=0.05, Minitab) on weight Treatment 4 (Compound A 0.05 ppm) was removed from the analysis because it was judged to be an outlier based on poor growth as described above. The paired imidacloprid rate (0.05 ppm, No. 9) was also removed to keep the data balanced.
# [2] = system: cotton aphid (CA) Aphis gossypii; assay: Test 1: cotton aphid counts on plants grown from soaked seeds; details: for Effect on number of aphids vs check: Test 1, seed soak, compound main effect
# Experimental: as §1, §2
# Raw data were not homogeneous and so replicate aphid counts were transformed using a square root count+0.5 transformation.
# [3] = system: Corn (Zea mays 'M2T783') seeds; assay: Test 2: fresh plant weight of corn after seed soak; details: for Plant Weight % increase: corn seedling weight vs untreated Tween 20 water check, pooled across rates; for Plant Weight (g) Mean: corn, seed soak, pooled across rates 50-0.19 ppm, fresh weight after 13 days; for Tukey's pair-wise comparison of corn plant weight with untreated Tween 20 water check: pooled compound effects, family-wise error rate 0.05
# Experimental: Technical samples of Compound A and imidacloprid were dissolved in water containing 0.125% Tween 20 (V:V). […] The treatment concentrations for Compound A and imidacloprid were 50, 12.5, 3.125, 0.78 and 0.19 ppm. Solutions were prepared in excess and 40 ml was added to 50 ml centrifuge tubes. Corn (Zea mays ‘M2T783’) seeds were inspected for uniform size and undamaged condition and were placed into each centrifuge tube containing specific compound by rate solutions. A treatment of only 0.125% aqueous Tween 20 was used to soak corn seeds and served as the untreated check. Tubes containing seeds and compound solutions were held at room temperature and after […] the seeds were removed from each solution, rinsed and planted into sand in 7.5 cm^2 pots. Tissue paper was placed into the bottom of each pot to keep sand from leaching from the pot. A total of 8 reps of each compound by rate combination were planted for both corn. Eight replicate pots of compound by rate combination were arranged in a completely randomized design on greenhouse carts. This arrangement of treated seeds in pots was placed into the greenhouse and watered over the top as needed. Each cart was equipped with a plastic rack that served to raise the pots up off the cart surface and away from any standing water. The carts were placed in the center of the greenhouse and were rotated 180 degrees daily. After 13 days the carts were moved to the laboratory and the plants were cut off at the soil surface and weighed. Fresh plant weight data were analyzed for homogeneity of variance using Levene's test and further evaluated using one way analysis of variance of individual treatment combinations (compound by rate) and pooled by compound across rates. Means were separated using Tukey's mean separation test with a family-wise error rate of 0.05. All analyses were conducted using Minitab
# Corn data were homogeneous based on Levene's test for homgeneity of variance (p=0.116 and p=0.69 respectively). AOV of corn data did indicate a difference (F=3.22, P=0.045, df=2) for pooled compound effects but not for individual treatment effects.
smiles,measurement,setting,value
CS(=O)(=NC#N)C(Cl)c1ccc(C(F)(F)F)nc1 (stereo not drawn) [Compound A],Effect on plant weight vs check,[1],significant increase in plant weight
same,Plant Weight (g) Rep 1,[1]; seed soak 0.005 ppm,2.36 g
same,Plant Weight (g) Rep 2,[1]; seed soak 0.005 ppm,1.76 g
same,Plant Weight (g) Rep 3,[1]; seed soak 0.005 ppm,2.09 g
same,Plant Weight (g) Rep 4,[1]; seed soak 0.005 ppm,2.22 g
same,Plant Weight (g) Rep 5,[1]; seed soak 0.005 ppm,1.92 g
same,Plant Weight (g) Rep 6,[1]; seed soak 0.005 ppm,1.93 g
same,Plant Weight (g) Rep 1,[1]; seed soak 0.05 ppm,0.73 g
same,Plant Weight (g) Rep 2,[1]; seed soak 0.05 ppm,1.35 g
same,Plant Weight (g) Rep 3,[1]; seed soak 0.05 ppm,1.2 g
same,Plant Weight (g) Rep 4,[1]; seed soak 0.05 ppm,1.1 g
same,Plant Weight (g) Rep 1,[1]; seed soak 0.5 ppm,1.84 g
same,Plant Weight (g) Rep 2,[1]; seed soak 0.5 ppm,1.88 g
same,Plant Weight (g) Rep 3,[1]; seed soak 0.5 ppm,2.04 g
same,Plant Weight (g) Rep 4,[1]; seed soak 0.5 ppm,2.13 g
same,Plant Weight (g) Rep 5,[1]; seed soak 0.5 ppm,1.96 g
same,Plant Weight (g) Rep 6,[1]; seed soak 0.5 ppm,1.8 g
same,Plant Weight (g) Rep 1,[1]; seed soak 5 ppm,2.23 g
same,Plant Weight (g) Rep 2,[1]; seed soak 5 ppm,2.1 g
same,Plant Weight (g) Rep 3,[1]; seed soak 5 ppm,1.79 g
same,Plant Weight (g) Rep 4,[1]; seed soak 5 ppm,2.53 g
same,Plant Weight (g) Rep 5,[1]; seed soak 5 ppm,1.87 g
same,Plant Weight (g) Rep 6,[1]; seed soak 5 ppm,1.9 g
same,Plant Weight (g) Rep 1,[1]; seed soak 50 ppm,2.29 g
same,Plant Weight (g) Rep 2,[1]; seed soak 50 ppm,2.22 g
same,Plant Weight (g) Rep 3,[1]; seed soak 50 ppm,2.12 g
same,Plant Weight (g) Rep 4,[1]; seed soak 50 ppm,1.87 g
same,Plant Weight (g) Rep 5,[1]; seed soak 50 ppm,1.87 g
same,Plant Weight (g) Rep 6,[1]; seed soak 50 ppm,2.14 g
same,Effect on number of aphids vs check,[2],significantly more aphids in the check treatment; also recorded: reduced the number of aphids on plants
same,Aphids (#/plant) Rep 1,[2]; seed soak 0.005 ppm,72 #/plant
same,Aphids (#/plant) Rep 2,[2]; seed soak 0.005 ppm,110 #/plant
same,Aphids (#/plant) Rep 3,[2]; seed soak 0.005 ppm,35 #/plant
same,Aphids (#/plant) Rep 4,[2]; seed soak 0.005 ppm,70 #/plant
same,Aphids (#/plant) Rep 5,[2]; seed soak 0.005 ppm,55 #/plant
same,Aphids (#/plant) Rep 6,[2]; seed soak 0.005 ppm,15 #/plant
same,Aphids (#/plant) Rep 1,[2]; seed soak 0.05 ppm,70 #/plant
same,Aphids (#/plant) Rep 2,[2]; seed soak 0.05 ppm,80 #/plant
same,Aphids (#/plant) Rep 3,[2]; seed soak 0.05 ppm,60 #/plant
same,Aphids (#/plant) Rep 4,[2]; seed soak 0.05 ppm,35 #/plant
same,Aphids (#/plant) Rep 1,[2]; seed soak 0.5 ppm,55 #/plant
same,Aphids (#/plant) Rep 2,[2]; seed soak 0.5 ppm,75 #/plant
same,Aphids (#/plant) Rep 3,[2]; seed soak 0.5 ppm,65 #/plant
same,Aphids (#/plant) Rep 4,[2]; seed soak 0.5 ppm,40 #/plant
same,Aphids (#/plant) Rep 5,[2]; seed soak 0.5 ppm,45 #/plant
same,Aphids (#/plant) Rep 6,[2]; seed soak 0.5 ppm,30 #/plant
same,Aphids (#/plant) Rep 1,[2]; seed soak 5 ppm,23 #/plant
same,Aphids (#/plant) Rep 2,[2]; seed soak 5 ppm,25 #/plant
same,Aphids (#/plant) Rep 3,[2]; seed soak 5 ppm,33 #/plant
same,Aphids (#/plant) Rep 4,[2]; seed soak 5 ppm,65 #/plant
same,Aphids (#/plant) Rep 5,[2]; seed soak 5 ppm,25 #/plant
same,Aphids (#/plant) Rep 6,[2]; seed soak 5 ppm,32 #/plant
same,Aphids (#/plant) Rep 1,[2]; seed soak 50 ppm,4 #/plant
same,Aphids (#/plant) Rep 2,[2]; seed soak 50 ppm,2 #/plant
same,Aphids (#/plant) Rep 3,[2]; seed soak 50 ppm,2 #/plant
same,Aphids (#/plant) Rep 4,[2]; seed soak 50 ppm,12 #/plant
same,Aphids (#/plant) Rep 5,[2]; seed soak 50 ppm,18 #/plant
same,Aphids (#/plant) Rep 6,[2]; seed soak 50 ppm,2 #/plant
same,Plant Weight % increase,[3],38.9%
same,Plant Weight (g) Mean,[3],3.162 g
same,Tukey's pair-wise comparison of corn plant weight with untreated Tween 20 water check,[3],significantly different; also recorded: significantly increased plant weight
"O=[N+]([O-])NC1=NCCN1Cc1ccc(Cl)nc1 [Imidacloprid, imidacloprid]",Effect on plant weight vs check,[1],increased plant weights compared to the check plants
same,Plant Weight (g) Rep 1,[1]; seed soak 0.005 ppm,2.07 g
same,Plant Weight (g) Rep 2,[1]; seed soak 0.005 ppm,1.59 g
same,Plant Weight (g) Rep 3,[1]; seed soak 0.005 ppm,2.01 g
same,Plant Weight (g) Rep 4,[1]; seed soak 0.005 ppm,1.67 g
same,Plant Weight (g) Rep 5,[1]; seed soak 0.005 ppm,1.86 g
same,Plant Weight (g) Rep 6,[1]; seed soak 0.005 ppm,1.68 g
same,Plant Weight (g) Rep 1,[1]; seed soak 0.05 ppm,1.38 g
same,Plant Weight (g) Rep 2,[1]; seed soak 0.05 ppm,1.37 g
same,Plant Weight (g) Rep 3,[1]; seed soak 0.05 ppm,1.65 g
same,Plant Weight (g) Rep 4,[1]; seed soak 0.05 ppm,1.57 g
same,Plant Weight (g) Rep 5,[1]; seed soak 0.05 ppm,1.72 g
same,Plant Weight (g) Rep 6,[1]; seed soak 0.05 ppm,1.62 g
same,Plant Weight (g) Rep 1,[1]; seed soak 0.5 ppm,1.61 g
same,Plant Weight (g) Rep 2,[1]; seed soak 0.5 ppm,1.82 g
same,Plant Weight (g) Rep 3,[1]; seed soak 0.5 ppm,1.73 g
same,Plant Weight (g) Rep 4,[1]; seed soak 0.5 ppm,2.05 g
same,Plant Weight (g) Rep 5,[1]; seed soak 0.5 ppm,1.66 g
same,Plant Weight (g) Rep 6,[1]; seed soak 0.5 ppm,1.95 g
same,Plant Weight (g) Rep 1,[1]; seed soak 5 ppm,1.64 g
same,Plant Weight (g) Rep 2,[1]; seed soak 5 ppm,1.44 g
same,Plant Weight (g) Rep 3,[1]; seed soak 5 ppm,1.91 g
same,Plant Weight (g) Rep 4,[1]; seed soak 5 ppm,1.44 g
same,Plant Weight (g) Rep 5,[1]; seed soak 5 ppm,1.75 g
same,Plant Weight (g) Rep 6,[1]; seed soak 5 ppm,2.05 g
same,Plant Weight (g) Rep 1,[1]; seed soak 50 ppm,1.47 g
same,Plant Weight (g) Rep 2,[1]; seed soak 50 ppm,2.05 g
same,Plant Weight (g) Rep 3,[1]; seed soak 50 ppm,1.73 g
same,Plant Weight (g) Rep 4,[1]; seed soak 50 ppm,1.84 g
same,Plant Weight (g) Rep 5,[1]; seed soak 50 ppm,2.02 g
same,Plant Weight (g) Rep 6,[1]; seed soak 50 ppm,1.86 g
same,Effect on number of aphids vs check,[2],significantly more aphids in the check treatment; also recorded: reduced the number of aphids on plants
same,Aphids (#/plant) Rep 1,[2]; seed soak 0.005 ppm,45 #/plant
same,Aphids (#/plant) Rep 2,[2]; seed soak 0.005 ppm,125 #/plant
same,Aphids (#/plant) Rep 3,[2]; seed soak 0.005 ppm,55 #/plant
same,Aphids (#/plant) Rep 4,[2]; seed soak 0.005 ppm,75 #/plant
same,Aphids (#/plant) Rep 5,[2]; seed soak 0.005 ppm,80 #/plant
same,Aphids (#/plant) Rep 6,[2]; seed soak 0.005 ppm,35 #/plant
same,Aphids (#/plant) Rep 1,[2]; seed soak 0.05 ppm,95 #/plant
same,Aphids (#/plant) Rep 2,[2]; seed soak 0.05 ppm,60 #/plant
same,Aphids (#/plant) Rep 3,[2]; seed soak 0.05 ppm,65 #/plant
same,Aphids (#/plant) Rep 4,[2]; seed soak 0.05 ppm,95 #/plant
same,Aphids (#/plant) Rep 5,[2]; seed soak 0.05 ppm,75 #/plant
same,Aphids (#/plant) Rep 6,[2]; seed soak 0.05 ppm,50 #/plant
same,Aphids (#/plant) Rep 1,[2]; seed soak 0.5 ppm,25 #/plant
same,Aphids (#/plant) Rep 2,[2]; seed soak 0.5 ppm,44 #/plant
same,Aphids (#/plant) Rep 3,[2]; seed soak 0.5 ppm,43 #/plant
same,Aphids (#/plant) Rep 4,[2]; seed soak 0.5 ppm,70 #/plant
same,Aphids (#/plant) Rep 5,[2]; seed soak 0.5 ppm,80 #/plant
same,Aphids (#/plant) Rep 6,[2]; seed soak 0.5 ppm,30 #/plant
same,Aphids (#/plant) Rep 1,[2]; seed soak 5 ppm,33 #/plant
same,Aphids (#/plant) Rep 2,[2]; seed soak 5 ppm,37 #/plant
same,Aphids (#/plant) Rep 3,[2]; seed soak 5 ppm,17 #/plant
same,Aphids (#/plant) Rep 4,[2]; seed soak 5 ppm,18 #/plant
same,Aphids (#/plant) Rep 5,[2]; seed soak 5 ppm,30 #/plant
same,Aphids (#/plant) Rep 6,[2]; seed soak 5 ppm,34 #/plant
same,Aphids (#/plant) Rep 1,[2]; seed soak 50 ppm,0 #/plant
same,Aphids (#/plant) Rep 2,[2]; seed soak 50 ppm,0 #/plant
same,Aphids (#/plant) Rep 3,[2]; seed soak 50 ppm,4 #/plant
same,Aphids (#/plant) Rep 4,[2]; seed soak 50 ppm,7 #/plant
same,Aphids (#/plant) Rep 5,[2]; seed soak 50 ppm,4 #/plant
same,Aphids (#/plant) Rep 6,[2]; seed soak 50 ppm,1 #/plant
same,Plant Weight % increase,[3],24.8%
same,Plant Weight (g) Mean,[3],2.841 g
same,Tukey's pair-wise comparison of corn plant weight with untreated Tween 20 water check,[3],not significantly different
